We go through one molecule from US20090264291A1, “COMPOSITIONS COMPRISING ANTI-PROLIFERATIVE AGENTS AND USE THEREOF” (priority 1998, published 2009).

Several values for one entry are separate records, joined by “and”; a condition that tells them apart may be missing. Identical values can stand only once.

The series relates to cells. The experiment in a line: Cytotoxicity by agarose diffusion test. It is filed as cell-based. How it is done:
Cytotoxicity was assessed by an agarose diffusion test, in which the test material is applied to the surface of agarose gel, wherein the agarose gel is in contact with cells. Cytotoxic test material causes cell lysis. Live cells incorporate MTT and transform it to formazan as described herein above; cytotoxicity potential is given according to the mean area of non-stained cells, i.e., lysed cells, by the following scale:
Two independent tests were performed in duplicate (total of 4 Petri dishes). Cultured cell were trypsinized and counted. 2×10^6 cells in 4 ml of DMEM medium were seeded in each 50 mm diameter Petri dish. The dishes were incubated for 24 h+1 h at 37° C., 5% CO2, before they were covered with 4% agarose gel, prepared with complete DMEM medium. The test compound (tomato derived extract) was applied on top of a 6 mm disc of filter paper that was placed in the center of the agarose gel surface.
After 23 h-25 h of contact at 37° C. and 5% CO2 the filter paper with the test compound and the agarose gel were gently removed. The cells were rinsed carefully with PBS by a pipette. The liquid was then removed, and 2 ml solution of MTT at 0.5 mg/ml, prepared extemporaneously from a source solution of 5 mg/ml, was added to each dish. The dishes were then incubated for 0.5-1.5 h at 37° C. and 5% CO2. After removal of the excess dye, living cells were colored while lysed cells appeared as an uncolored zone. Each dish was placed on a light surface and the largest and the smallest diameters of the lysis area, estimated visually, were measured by a measuring ruler (mm) on a graph paper, and the mean diameter was calculated.
The value of the diameter of cell lysis taken into account for the determination of cytotoxicity corresponded to the arithmetical mean of the mean diameter defined for the 2 dishes of each test (MD). Pure complete DMEM served as a negative control (no lysis should occur). 3% SDS served as a positive control (cells are lysed due to the presence of SDS).

Setting [1] is: dishes 1-4, 23 h-25 h of contact.

On to `CCCCCCCCCCCCOS(=O)(=O)[O-].[Na+]` [3% SDS, SDS], for which, for the setting “dishes 1 + 2 and 3 + 4”, the “MD (mean of the mean diameter for the 2 dishes of each test)” value is 2.6 cm. For the same molecule, the “Mean (diameter of lysis)” value (dishes 1-4) was 2.6 cm and 2.5 cm. Under setting [1], the “Largest diameter (of the lysis area)” value was 2.5 cm and 2.6 cm; the “Smallest diameter (of the lysis area)” value was 2.4 cm and 2.5 cm.
